Results taken from patent publication US8138168B1 (Takeda Pharmaceutical Company Limited, priority 2007, dated 2012).

target: T1, Recombinant human renin (Homo sapiens, UniProt P00797); test: In vitro enzymatic activity assay of renin inhibitors (fluorogenic peptide substrate); format: biochemical; conditions: read-out: IC50 of Exemplified Compounds Against Renin
T1 construct: isolate the active form (residues 67-406); made in house; host or cells: FreeStyle 293-F cells (transient expression of pcDNA3.1(+)/hREN)
T1 sequence (P00797 67-406): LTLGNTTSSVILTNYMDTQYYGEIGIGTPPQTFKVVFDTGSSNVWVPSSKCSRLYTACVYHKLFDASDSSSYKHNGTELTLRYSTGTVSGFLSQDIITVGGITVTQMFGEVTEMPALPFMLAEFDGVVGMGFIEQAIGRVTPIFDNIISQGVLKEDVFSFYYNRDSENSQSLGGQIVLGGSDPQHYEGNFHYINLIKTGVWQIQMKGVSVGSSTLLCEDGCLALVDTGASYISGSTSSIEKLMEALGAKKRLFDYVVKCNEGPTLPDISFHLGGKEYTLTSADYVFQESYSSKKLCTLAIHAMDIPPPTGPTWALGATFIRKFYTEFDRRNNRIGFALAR
Method in brief: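 Recombinant human renin (3 nM final) pre-incubated 10 min at 37 °C with compounds in pH 7.4 Hepes/EDTA/DTT/0.1 mg/mL BSA/Brij35 buffer (optionally plus 2% BSA), 5% DMSO final; fluorogenic QXL520/HiLyteFluo488 peptide substrate added.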

SMILES | IC50
COCCCn1c([C@@H]2CCCN(C(=O)C[C@H](N)CNC(=O)Nc3ccccc3C(=O)OC)C2)nc2ccccc21 [Compound 329, methyl 2-(3-((S)-2-amino-4-((R)-3-(1-(3-methoxypropyl)-1H-benzo[d]imidazol-2-yl)piperidin-1-yl)-4-oxobutyl)ureido)benzoate] | > 1 µM
CCOC(=O)c1ccccc1NC(=O)NC[C@@H](N)CC(=O)N1CCC[C@@H](c2nc3ccccc3n2CCCOC)C1 [Compound 330, ethyl 2-(3-((S)-2-amino-4-((R)-3-(1-(3-methoxypropyl)-1H-benzo[d]imidazol-2-yl)piperidin-1-yl)-4-oxobutyl)ureido)benzoate] | > 1 µM
COCCCn1c([C@@H]2CCCN(C(=O)C[C@H](N)CNC(=O)C3CCCC3)C2)nc2ccccc21 [Compound 331, N-((S)-2-amino-4-((R)-3-(1-(3-methoxypropyl)-1H-benzo[d]imidazol-2-yl)piperidin-1-yl)-4-oxobutyl)cyclopentanecarboxamide] | > 1 µM
COCCCn1c([C@@H]2CCCN(C(=O)C[C@H](N)CNC(=O)NC3CCCC3)C2)nc2ccccc21 [Compound 332, 1-((S)-2-amino-4-((R)-3-(1-(3-methoxypropyl)-1H-benzo[d]imidazol-2-yl)piperidin-1-yl)-4-oxobutyl)-3-cyclopentylurea] | > 1 µM
COCCCn1c([C@@H]2CCCN(C(=O)C[C@H](N)CNC(=O)C(C)C)C2)nc2ccccc21 [Compound 333, N-((S)-2-amino-4-((R)-3-(1-(3-methoxypropyl)-1H-benzo[d]imidazol-2-yl)piperidin-1-yl)-4-oxobutyl)isobutyramide] | > 1 µM
COCCCn1c([C@@H]2CCCN(C(=O)C[C@H](N)CNC(=O)N3CCCC3)C2)nc2ccccc21 [Compound 334, N-((S)-2-amino-4-((R)-3-(1-(3-methoxypropyl)-1H-benzo[d]imidazol-2-yl)piperidin-1-yl)-4-oxobutyl)pyrrolidine-1-carboxamide] | > 1 µM
COCCCn1c([C@@H]2CCCN(C(=O)[C@@H]3CN(S(=O)(=O)c4ccc5c(c4)OCCO5)C[C@H]3N)C2)nc2ccccc21 [Compound 337, ((3R,4S)-4-amino-1-(2,3-dihydrobenzo[b][1,4]dioxin-6-ylsulfony)pyrrolidin-3-yl)((R)-3-(1-(3-methoxypropyl)-1H-benzo[d]imidazol-2-yl)piperidin-1-yl)methanone] | > 1 µM
COCCCn1c([C@@H]2CCCN(C(=O)[C@@H]3CN(S(=O)(=O)c4ccc5[nH]c(=O)[nH]c5c4)C[C@H]3N)C2)nc2ccccc21 [Compound 338] | < 0.1 µM
COCCCn1c([C@@H]2CCCN(C(=O)[C@@H]3CN(S(=O)(=O)c4c(Cl)cc(Br)cc4Cl)C[C@H]3N)C2)nc2ccccc21 [Compound 339] | 0.1 to 1 µM
COCCCn1c([C@@H]2CCCN(C(=O)[C@@H]3CN(S(=O)(=O)c4c(Cl)cc(Cl)cc4Cl)C[C@H]3N)C2)nc2ccccc21 [Compound 340, ((3R,4S)-4-amino-1-(2,4,6-trichlorophenylsulfonyl)pyrrolidin-3-yl)((R)-3-(1(3-methoxypropyl)-1H-benzo[d]imidazol-2-yl)piperidin-1-yl)methanone] | 0.1 to 1 µM
COCCCn1c([C@@H]2CCCN(C(=O)[C@@H]3CN(S(=O)(=O)c4ccc5ccccc5c4)C[C@H]3N)C2)nc2ccccc21 [Compound 341, ((3R,4S)-4-amino-1-(naphthalen-2-ylsulfonyl)pyrrolidin-3-yl)((R)-3-(1-(3-methoxypropyl)-1H-benzo[d]imidazol-2-yl)piperidin-1-yl)methanone] | 0.1 to 1 µM
COCCCn1c([C@@H]2CCCN(C(=O)[C@@H]3CN(S(=O)(=O)c4ccc(Br)cc4Cl)C[C@H]3N)C2)nc2ccccc21 [Compound 342, ((3R,4S)-4-amino-1-(4-bromo-2-chlorophenylsulfonyl)pyrrolidin-3-yl)((R)-3-(1-(3-methoxypropyl)-1H-benzo[d]imidazol-2-yl)piperidin-1-yl)methanone] | 0.1 to 1 µM
COCCCn1c([C@@H]2CCCN(C(=O)[C@@H]3CN(S(=O)(=O)c4cc(Cl)ccc4Cl)C[C@H]3N)C2)nc2ccccc21 [Compound 343, ((3R,4S)-4-amino-1-(2,5-dichlorophenylsulfonyl)pyrrolidin-3-yl)((R)-3-(1-(3-methoxypropyl)-1H-benzo[d]imidazol-2-yl)piperidin-1-yl)methanone] | 0.1 to 1 µM
COCCCn1c([C@@H]2CCCN(C(=O)[C@@H]3CN(S(=O)(=O)c4cc(C)c(Cl)cc4C)C[C@H]3N)C2)nc2ccccc21 [Compound 344, ((3R,4S)-4-amino-1-(4-chloro-2,5-dimethylphenylsulfonyl)pyrrolidin-3-yl)((R)-3-(1-(3-methoxypropyl)-1H-benzo[d]imidazol-2-yl)piperidin-1-yl)methanone] | 0.1 to 1 µM
COCCCn1c([C@@H]2CCCN(C(=O)[C@@H]3CN(S(=O)(=O)c4cc(Cl)c(Cl)cc4Cl)C[C@H]3N)C2)nc2ccccc21 [Compound 345, ((3R,4S)-4-amino-1-(2,4,5-trichlorophenylsulfonyl)pyrrolidin-3-yl)((R)-3-(1-(3-methoxypropyl)-1H-benzo[d]imidazol-2-yl)piperidin-1-yl)methanone] | 0.1 to 1 µM
COCCCn1c([C@@H]2CCCN(C(=O)[C@@H]3CN(S(=O)(=O)c4ccccc4Cl)C[C@H]3N)C2)nc2ccccc21 [Compound 346, ((3R,4S)-4-amino-1-(2-chlorophenylsulfonyl)pyrrolidin-3-yl)((R)-3-(1-(3-methoxypropyl)-1H-benzo[d]imidazol-2-yl)piperidin-1-yl)methanone] | 0.1 to 1 µM
COCCCn1c([C@@H]2CCCN(C(=O)[C@@H]3CN(S(=O)(=O)c4c(Cl)cccc4Cl)C[C@H]3N)C2)nc2ccccc21 [Compound 347, ((3R,4S)-4-amino-1-(2,6-dichlorophenylsulfonyl)pyrrolidin-3-yl)((R)-3-(1-(3-methoxypropyl)-1H-benzo[d]imidazol-2-yl)piperidin-1-yl)methanone] | 0.1 to 1 µM
COCCCn1c([C@@H]2CCCN(C(=O)[C@@H]3CN(S(=O)(=O)c4ccc(-c5ccccc5)cc4)C[C@H]3N)C2)nc2ccccc21 [Compound 348, ((3R,4S)-4-amino-1-(biphenyl-4-ylsulfonyl)pyrrolidin-3-yl)((R)-3-(1-(3-methoxypropyl)-1H-benzo[d]imidazol-2-yl)piperidin-1-yl)methanone] | 0.1 to 1 µM
COCCCn1c([C@@H]2CCCN(C(=O)[C@@H]3CN(S(=O)(=O)c4ccc(F)cc4Cl)C[C@H]3N)C2)nc2ccccc21 [Compound 349, ((3R,4S)-4-amino-1-(2-chloro-4-fluorophenylsulfonyl)pyrrolidin-3-yl)((R)-3-(1-(3-methoxypropyl)-1H-benzo[d]imidazol-2-yl)piperidin-1-yl)methanone] | 0.1 to 1 µM
COCCCn1c([C@@H]2CCCN(C(=O)[C@@H]3CN(S(=O)(=O)c4ccc(Cl)cc4Cl)C[C@H]3N)C2)nc2ccccc21 [Compound 350, ((3R,4S)-4-amino-1-(2,4-dichlorophenylsulfonyl)pyrrolidin-3-yl)((R)-3-(1-(3-methoxypropyl)-1H-benzo[d]imidazol-2-yl)piperidin-1-yl)methanone] | 0.1 to 1 µM
COCCCn1c([C@@H]2CCCN(C(=O)[C@@H]3CN(S(=O)(=O)c4cccc(Cl)c4)C[C@H]3N)C2)nc2ccccc21 [Compound 351, ((3R,4S)-4-amino-1-(3-chlorophenylsulfonyl)pyrrolidin-3-yl)((R)-3-(1-(3-methoxypropyl)-1H-benzo[d]imidazol-2-yl)piperidin-1-yl)methanone] | 0.1 to 1 µM
